# Source: patent publication US20180298405A1, “METHODS AND COMPOSITIONS TO INCREASE HUMAN SOMATIC CELL NUCLEAR TRANSFER (SCNT) EFFICIENCY BY REMOVING HISTONE H3-LYSINE TRIMETHYLATION, AND DERIVATION OF HUMAN NT-ESC” (CHILDREN'S MEDICAL CENTER CORPORATION, priority 2015, published 2018)
# Values joined by “and” are separate entries in the source; they are usually repeats but may differ in a detail not shown here. Equal values may be shown once.
# Columns and labels:
# human SCNT blastocysts = assay: Derivation of human NTK-ESCs from KDM4A-assisted SCNT blastocysts; assay type: cell-based
# Description: All expanded blastocysts were treated with acid Tyrode solution to remove the zona pellucida, then the entire blastocysts (without removing trophectoderm) were plated onto mitotically-inactivated mouse fibroblasts (MEFs, Global Stem Inc.) in knockout-DMEM supplemented with Knockout Serum Replacement (10% SR, Invitrogen), FBS (10% Hyclone), bFGF (30 ng/ml), human LIF (2000 units/ml, Sigma-Aldrich), and ROCK inhibitor (1 uM, Sigma-Aldrich). The derivation medium was not changed for the next 3 days, then 1/2 medium was replaced with fresh medium without the ROCK inhibitor daily as previously described (Chung et al., 2008). After 3 passages, the amount of FBS was reduced to 2%, replacing it with SR. After 5 passages, the ES cells were cultured in DMEM/F12 supplemented with FGF (8 ng/ml, Invitrogen), SR (18%, Invitrogen), and FBS (2% Hyclone). After the 10 passages, the ES cells were maintained in DMEM/F12 supplemented with FGF (8 ng/ml) and 20% SR.
# human SCNT embryos = assay: Preimplantation development of KDM4A-assisted human SCNT embryos; assay type: cell-based; settings: for embryos reaching the blastocyst stage: day 6; for embryos developed to the expanded blastocyst stage: day 7
# Description: All MII stage human oocytes with distinctive 1st polar bodies were enucleated under an inverted microscope equipped with a Poloscope (Oosight®, Cambridge Research & Instrumentation). The enucleation and nuclear donor cell fusion were carried out in the presence of caffeine (1.25 mM). For enucleation, oocytes were pre-incubated in Global HTF medium with Hepes (Life Global) containing 0.5 μg/ml cytochalasin B and caffeine (1.25 mM) for 5 minutes. Then, the spindle complex was removed using a PIEZO actuator (Primetech, Japan). Dermal fibroblast cells resuspended in a drop containing HVJ-E extract (Cosmo Bio, USA) were inserted into the perivitelline space of the enucleated oocytes. The reconstructed oocytes were kept in the manipulation medium containing caffeine (1.25 mM) until the cell fusion was confirmed, and then the reconstructed oocytes were transferred into Global medium 10% SPS, and incubated for 1-1.5 hours before activation. Activation was carried out by applying electropulses (2×50 μs DC pulses, 2.7 kV/cm) in 0.25M d-sorbitol buffer and 6-DMAP (2 mM, 4 hrs) as previously described (Tachibana et al., 2013). The activated embryos were transferred to Global 10% SPS medium supplemented with Trichostatin A (TSA, 10 nM, Sigma) for 12 hrs, then the embryos were transferred to Global 10% FBS without TSA and cultured for up to 7 days in an incubator with atmosphere of 6% CO2/5% O2/89% N2 at 37° C. The culture medium was changed on day 3.
# For mRNA injection, the activated SCNT embryos were washed and cultured in Global 10% SPS for 1 hr before the KDM4A mRNA injection. Approximately 10 pl of KDM4A mRNA were injected into the SCNT embryos at 5 hours after activation in Hepes-HTF 10% SPS medium using a PIEZO actuator as described previously (Matoba et al., 2014). More details on donor cell preparation, mRNA preparation, RNA-seq and other procedures can be found in the Supplemental Experimental Procedures.
# In vitro transcription was performed as described previously (Matoba et al., 2014). Briefly, full length human KDM4A/JHDM3A cDNA was cloned into a pcDNA3.1 plasmid containing poly(A)83 at the 3′ end of cloning site. The catalytic defective mutant form of KDM4A (H188A) was generated using PrimeSTAR mutagenesis kit (TAKARA # R045A). mRNA was synthesized using the mMESSAGE mMACHINE T7 Ultra Kit (Life technologies # AM1345). The synthesized mRNA was dissolved in nuclease-free water. The concentration of mRNA was measured by NanoDrop ND-1000 spectrophotometer (NanoDrop Technologies). Aliquots of mRNA were stored at −80° C. until use.
# Ovarian stimulation was carried out as described previously (Chung et al., 2014). Briefly, a combination of human recombinant follicle-stimulating hormone (rFSH, 225-3001U, Merck) and human menopausal gonadotropin (Menopur 751U, Ferring) were used to stimulate ovary for 9-11 days with GnRH antagonist (Ganirelix acetate, Merck) suppression. Lupron 4 mg was used to mimic the LH surge when 1 or 2 follicles reached 18 mm in diameter. All medications were administered through subcutaneous injections. Transvaginal oocyte retrieval was performed approximately 36 hours after the Lupron injection. The collected COCs were denuded with 5080 IU/ml hyaluronidase (Sigma-Aldrich) within 1-2 hours after retrieval. Then, they were kept in Global medium supplemented with 10% serum protein supplement (SPS; Cooper Surgical) (IVF Online) until use.
# The procedures for somatic nuclear donor cell preparation are essentially the same as previously described (Chung et al., 2014). Briefly, the skin explant was mechanically minced and treated with collagenase (type I, 200 unit/ml, Worthington-biochem) in DMEM supplemented with 10 μg/ml penicillin-streptomycin solution to dissociate the skin tissue. […]
# [1] = pooled four oocyte donors, per 2-cell
# [2] = pooled four oocyte donors, per 2-cell, listed as KDM4A
substance,measurement,setting,value
"KDM4A mRNA: in vitro transcribed mRNA of full length human KDM4A/JHDM3A cDNA, an H3K9me3 demethylase (SEQ ID NO: 1)",stable NT-ESC lines derived,"human SCNT blastocysts; after five passages, from eight expanded blastocysts",four stable NT-ESC lines
same,expanded blastocysts attached to MEF feeder cells and initiated outgrowth,human SCNT blastocysts; of eight expanded blastocysts,Seven out of the eight
same,oocyte donors whose oocytes supported blastocyst formation,"human SCNT embryos; four oocyte donors tested, TSA present",all four donors tested supported blastocyst formation
same,embryos reaching the blastocyst stage,human SCNT embryos; [1],26.8% and 27%
same,embryos reaching the blastocyst stage,human SCNT embryos; [2],26.8%
same,embryos developed to the expanded blastocyst stage,human SCNT embryos; [1],14.3%
same,embryos developed to the expanded blastocyst stage,human SCNT embryos; [2],14% and 14.3%
same,developmental rate to 8-cell stage,human SCNT embryos; [1],71.4%
same,developmental rate to morula stage,human SCNT embryos; [1],32%
same,developmental rate to morula stage,human SCNT embryos; [2],32.1%
same,cleavage efficiency to form 2-cell embryos,"human SCNT embryos; pooled oocytes of four donors, AMD patient fibroblast donors, mRNA injected 5 h after activation, per 1-cell",88.9%
same,increase in hSCNT embryos developing into blastocysts,human SCNT embryos; versus control hSCNT embryos (4.2%),greater than 20%
same,increase in embryos reaching expanded blastocyst stage,human SCNT embryos; versus non-treated human SCNT embryos (0%),14%
